Data as given in patent publication US20260285831A1, “LACTAM DERIVATIVES FOR INHIBITING NLRP3 AND USES THEREOF” (Ventus Therapeutics U.S., Inc., priority 2023, published 2026).
Where two headings read alike, the source gives them in different places.

Target: T1, human NLRP3 (Homo sapiens, UniProt Q96P20)
T1 construct: Human whole blood is drawn from healthy volunteers after obtaining written informed consent; from tissue; host or cells: human whole blood from healthy volunteers (heparin lithium tubes)
Assay: Human whole blood (hWB) NLRP3 assay (IL-1β release after LPS priming and ATP activation)
Assay type: cell-based
Conditions: for IC50: human whole blood; for fold improvement in activity compared to Compound 3 (hWB IL-1β IC50): additional ring N atom versus Compound 3 with lactam ring N as sole N ring atom, Table E; for hWB NLRP3 inhibitory activity compared to the (S)-isomer: isomer comparison, in words
Experimental: Human Whole Blood (hWB) NLRP3 Assay
Human whole blood is drawn from healthy volunteers after obtaining written informed consent. Heparin lithium coated tubes are used to collect blood from volunteers. Blood samples are distributed on 96 well plates using 90 μl per well.
Priming procedure: Priming is performed by adding 5 μl of LPS (026:B6; Sigma L-2654) at a final concentration of 1 μg/ml for 4.5 hours in a humidified incubator with 37° C., 5% CO2. Thirty minutes prior to NLRP3 activation, 5 μl of a 20× compound solution or vehicle (2% dimethylsulfoxide (DMSO)) is added to each well and plates were incubated on a shaker (450 rpm) in a humidified incubator with 37° C., 5% CO2.
Alternative priming procedure: Thirty minutes prior to LPS priming, 5 μl of a 20× compound solution or vehicle (2% dimethylsulfoxide (DMSO)) is added to each well and plates were incubated on a shaker (450 rpm) in a humidified incubator with 37° C., 5% CO2. Priming is performed by adding 5 μl of LPS (026:B6; Sigma L-2654) at a final concentration of 1 μg/ml for 5 hours in a humidified incubator with 37° C., 5% CO2.
Activation is then performed by adding 3.3 μl of a 31×ATP solution per well. At the end of the 30 minutes stimulation, the plates are centrifuged (800 g, 10 min, room temperature) and the plasma from each well is frozen at −80° C. […] levels in the supernatant were analyzed using a mesoscale discovery assay (MSD K151TUK) according to the manufacturers' instructions.
There is no detectable difference in assay IC50 results using the priming procedure versus the alternative priming procedure.
Data provided in Table C, below. hWB […] Assay: A represents an IC50 value <0.3 μM; B represents an IC50 value ≥0.3 μM and <0.5 μM; C represents an IC50 value ≥0.5 μM and <1.0 μM; D represents an IC50 value ≥1.0 μM and <10 μM; E represents an IC50 value ≥10 μM. Dashed (--) lines indicate no data available.

[1] = LPS 1 μg/ml priming, ATP activation, Table C, class symbols, read-out: hWB IL-1β IC50
[2] = numeric values of Tables D and E, read-out: hWB IL-1β IC50

T1 sequence (Q96P20 whole entry): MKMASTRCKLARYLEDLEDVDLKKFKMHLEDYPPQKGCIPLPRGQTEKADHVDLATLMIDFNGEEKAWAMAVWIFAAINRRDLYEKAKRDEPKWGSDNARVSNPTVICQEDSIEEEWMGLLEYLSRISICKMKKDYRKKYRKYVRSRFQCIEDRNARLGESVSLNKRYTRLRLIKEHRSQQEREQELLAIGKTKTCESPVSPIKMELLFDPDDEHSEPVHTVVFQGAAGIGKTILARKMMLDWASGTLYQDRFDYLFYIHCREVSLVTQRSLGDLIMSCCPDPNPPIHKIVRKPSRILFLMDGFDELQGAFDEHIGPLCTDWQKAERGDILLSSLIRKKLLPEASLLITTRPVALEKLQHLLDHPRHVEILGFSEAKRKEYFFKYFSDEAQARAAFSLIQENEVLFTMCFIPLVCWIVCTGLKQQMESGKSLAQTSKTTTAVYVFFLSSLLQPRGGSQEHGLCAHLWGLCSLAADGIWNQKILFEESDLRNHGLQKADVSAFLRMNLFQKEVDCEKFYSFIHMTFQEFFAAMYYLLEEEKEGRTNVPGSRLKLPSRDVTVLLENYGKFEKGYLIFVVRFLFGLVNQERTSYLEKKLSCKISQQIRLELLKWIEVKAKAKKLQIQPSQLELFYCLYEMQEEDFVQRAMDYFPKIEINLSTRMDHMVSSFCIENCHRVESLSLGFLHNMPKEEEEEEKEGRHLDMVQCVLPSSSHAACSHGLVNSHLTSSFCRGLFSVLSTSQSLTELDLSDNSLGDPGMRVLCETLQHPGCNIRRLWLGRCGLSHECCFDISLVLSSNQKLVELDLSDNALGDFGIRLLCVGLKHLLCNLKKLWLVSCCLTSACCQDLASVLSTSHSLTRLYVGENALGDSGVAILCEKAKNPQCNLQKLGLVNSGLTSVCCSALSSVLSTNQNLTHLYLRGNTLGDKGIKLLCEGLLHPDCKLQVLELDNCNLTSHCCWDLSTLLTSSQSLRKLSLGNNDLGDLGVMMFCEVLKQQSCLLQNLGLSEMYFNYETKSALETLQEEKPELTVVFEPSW

| Compound | IC50 [1] [µM] | other results |
| --- | --- | --- |
| Cc1ccn(CCCC(=O)O)c(=O)c1N1C(=O)C(C)(C)c2c(F)c(C3CC3)cc(F)c21 (single isomer, unassigned) [Compound 4A*, (Sa)-4-(3-(5-cyclopropyl-4,7-difluoro-3,3-dimethyl-2-oxoindolin-1-yl)-4-methyl-2-oxopyridin-1(2H)-yl)butanoic acid] | ≥ 10 |  |
| CC1(C)C(=O)N([C@@H]2CCN(CCCC(=O)O)C2=O)c2c(F)cc(Cl)c(F)c21 (stereo in doubt) [Compound 23A, (R)-4-(3-(5-chloro-4,7-difluoro-3,3-dimethyl-2-oxoindolin-1-yl)-2-oxopyrrolidin-1-yl)butanoic acid] | 1 to 10 |  |
| CC1(C)C(=O)N(c2ccnn(CCCC(=O)O)c2=O)c2c(F)cc(C3CC3)c(F)c21 [Compound 11, 4-(5-(5-cyclopropyl-4,7-difluoro-3,3-dimethyl-2-oxoindolin-1-yl)-6-oxopyridazin-1(6H)-yl)butanoic acid] | 0.5 to 1 | fold improvement in activity compared to Compound 3 (hWB IL-1β IC50): 3-5 fold; IC50 [2]: 0.61 µM |
| Cc1cc(N2C(=O)C(C)(C)c3c(F)c(C4CC4)cc(F)c32)c(=O)n(CCCC(=O)O)c1 [Compound 5, 4-(3-(5-cyclopropyl-4,7-difluoro-3,3-dimethyl-2-oxoindolin-1-yl)-5-methyl-2-oxopyridin-1(2H)-yl)butanoic acid] | 1 to 10 |  |
| C[C@H](CCC(=O)O)N1CC[C@@H](N2C(=O)C(C)(C)c3c(F)c(C4CC4)cc(F)c32)C1=O (single isomer, unassigned) [Compound 24D*] | 1 to 10 |  |
| CC1(C)C(=O)N(c2nccn(CCCC(=O)O)c2=O)c2c(F)cc(C3CC3)c(F)c21 [Compound 10, 4-(3-(5-cyclopropyl-4,7-difluoro-3,3-dimethyl-2-oxoindolin-1-yl)-2-oxopyrazin-1(2H)-yl)butanoic acid] | 0.3 to 0.5 | fold improvement in activity compared to Compound 3 (hWB IL-1β IC50): 3-5 fold; IC50 [2]: 0.39 µM |
| Cc1ccc(N2C(=O)C(C)(C)c3c(F)c(C4CC4)cc(F)c32)c(=O)n1CCCC(=O)O [Compound 6, 4-(3-(5-cyclopropyl-4,7-difluoro-3,3-dimethyl-2-oxoindolin-1-yl)-6-methyl-2-oxopyridin-1(2H)-yl)butanoic acid] | 1 to 10 |  |
| CC1(C)C(=O)N(c2cccn(CCCC(=O)O)c2=O)c2c(F)cc(C3CC3)cc21 [Compound 2, 4-(3-(5-cyclopropyl-7-fluoro-3,3-dimethyl-2-oxoindolin-1-yl)-2-oxopyridin-1(2H)-yl)butanoic acid] | 1 to 10 |  |
| CC1(C)C(=O)N(c2nccn(CCCC(=O)O)c2=O)c2ccc(C3CC3)c(F)c21 [Compound 21, 4-(3-(5-cyclopropyl-4-fluoro-3,3-dimethyl-2-oxoindolin-1-yl)-2-oxopyrazin-1(2H)-yl)butanoic acid] | 1 to 10 |  |
| CC1(C)C(=O)N(c2cncn(CCCC(=O)O)c2=O)c2c(F)cc(C3CC3)c(F)c21 [Compound 8, 4-(5-(5-cyclopropyl-4,7-difluoro-3,3-dimethyl-2-oxoindolin-1-yl)-6-oxopyrimidin-1(6H)-yl)butanoic acid] | 0.3 to 0.5 | fold improvement in activity compared to Compound 3 (hWB IL-1β IC50): 3-5 fold; IC50 [2]: 0.47 µM |
| CC1(C)C(=O)N([C@@H]2CCN(CCCC(=O)O)C2=O)c2ccc(C3CC3)c(F)c21 (stereo in doubt) [Compound 18A*, (R)-4-(3-(5-cyclopropyl-4-fluoro-3,3-dimethyl-2-oxoindolin-1-yl)-2-oxopyrrolidin-1-yl)butanoic acid] | 1 to 10 | fold more active than 18B* (hWB IL-1β IC50) (R-isomer versus S-isomer 18B*, Table D): > 147 fold; IC50 [2]: 3.4 µM |
| CC1(C)C(=O)N([C@H]2CCN(CCCC(=O)O)C2=O)c2ccc(C3CC3)c(F)c21 (stereo in doubt) [Compound 18B*, (S)-4-(3-(5-cyclopropyl-4-fluoro-3,3-dimethyl-2-oxoindolin-1-yl)-2-oxopyrrolidin-1-yl)butanoic acid] | ≥ 10 | IC50 (class symbol printed beside the numeric value in Tables D and E, read-out: hWB IL-1β IC50 activity class): ≥ 10 µM; IC50 [2]: > 500 µM |
| CC1(C)C(=O)N([C@@H]2CCN(CCCC(=O)O)C2=O)c2c(F)cc(C(F)(F)F)c(F)c21 (stereo in doubt) [Compound 19A*, (R)-4-(3-(4,7-difluoro-3,3-dimethyl-2-oxo-5-(trifluoromethyl)indolin-1-yl)-2-oxopyrrolidin-1-yl)butanoic acid] | < 0.3 | hWB NLRP3 inhibitory activity compared to the (S)-isomer: more active isomer |
| CC1(C)C(=O)N(c2cc(C(F)(F)F)cn(CCCC(=O)O)c2=O)c2c(F)cc(C3CC3)c(F)c21 [Compound 12, 4-(3-(5-cyclopropyl-4,7-difluoro-3,3-dimethyl-2-oxoindolin-1-yl)-2-oxo-5-(trifluoromethyl)pyridin-1(2H)-yl)butanoic acid] | 1 to 10 |  |
| CC1(C)C(=O)N([C@@H]2CCN(CCCC(=O)O)C2=O)c2c(F)cc(C3CC3)cc21 (stereo in doubt) [Compound 22A*, (R)-4-(3-(5-cyclopropyl-7-fluoro-3,3-dimethyl-2-oxoindolin-1-yl)-2-oxopyrrolidin-1-yl)butanoic acid] | < 0.3 | hWB NLRP3 inhibitory activity compared to the (S)-isomer: more active isomer |
| CC1(C)C(=O)N(c2cc(-c3ccccc3)cn(CCCC(=O)O)c2=O)c2c(F)cc(C3CC3)c(F)c21 [Compound 13, 4-(3-(5-cyclopropyl-4,7-difluoro-3,3-dimethyl-2-oxoindolin-1-yl)-2-oxo-5-phenylpyridin-1(2H)-yl)butanoic acid] | ≥ 10 |  |
| CC1(C)C(=O)N([C@@H]2CC(C)(C)N(CCCC(=O)O)C2=O)c2c(F)cc(C3CC3)c(F)c21 (single isomer, unassigned) [Compound 25A] | ≥ 10 |  |

Second part, led by results:

| IC50 [1] [µM] | Compound | other results |
| --- | --- | --- |
| 0.5 to 1 | CC1(C)C(=O)N(c2nccn([C@H]3CCC[C@@H]3CC(=O)O)c2=O)c2c(F)cc(C3CC3)c(F)c21 (single isomer, unassigned) [Compound 20C*] |  |
| ≥ 10 | C[C@@H](CCC(=O)O)N1CC[C@H](N2C(=O)C(C)(C)c3c(F)c(C4CC4)cc(F)c32)C1=O (single isomer, unassigned) [Compound 24C*] |  |
| ≥ 10 | CC1(C)C(=O)N(c2c(=O)n(CCCC(=O)O)cc3ccccc23)c2c(F)cc(C3CC3)c(F)c21 [Compound 15, 4-(4-(5-cyclopropyl-4,7-difluoro-3,3-dimethyl-2-oxoindolin-1-yl)-3-oxoisoquinolin-2(3H)-yl)butanoic acid] |  |
| ≥ 10 | C[C@H](CC(=O)O)CN1CC[C@H](N2C(=O)C(C)(C)c3c(F)c(C4CC4)cc(F)c32)C1=O (single isomer, unassigned) [Compound 26D*] |  |
| 0.5 to 1 | CC1(C)C(=O)N(c2nccn([C@@H]3CCC[C@H]3CC(=O)O)c2=O)c2c(F)cc(C3CC3)c(F)c21 (single isomer, unassigned) [Compound 20D*] |  |
| 1 to 10 | CC1(C)C(=O)N(c2cc3ccccc3n(CCCC(=O)O)c2=O)c2c(F)cc(C3CC3)c(F)c21 [Compound 9, 4-(3-(5-cyclopropyl-4,7-difluoro-3,3-dimethyl-2-oxoindolin-1-yl)-2-oxoquinolin-1(2H)-yl)butanoic acid] |  |
| 0.5 to 1 | CC1(C)C(=O)N(c2nccn(CCCC(=O)O)c2=O)c2c(F)cc(C(F)(F)F)c(F)c21 [Compound 17, 4-(3-(4,7-difluoro-3,3-dimethyl-2-oxo-5-(trifluoromethyl)indolin-1-yl)-2-oxopyrazin-1(2H)-yl)butanoic acid] |  |
| ≥ 10 | CC1(C)C(=O)N([C@H]2CC(C)(C)N(CCCC(=O)O)C2=O)c2c(F)cc(C3CC3)c(F)c21 (single isomer, unassigned) [Compound 25B] |  |
| < 0.3 | CC1(C)C(=O)N([C@@H]2CCN(CCCC(=O)O)C2=O)c2c(F)cc(C3CC3)c(F)c21 [Compound 16A, (R)-4-(3-(5-cyclopropyl-4,7-difluoro-3,3-dimethyl-2-oxoindolin-1-yl)-2-oxopyrrolidin-1-yl)butanoic acid] |  |
| 0.3 to 0.5 | C[C@@H](CCC(=O)O)N1CC[C@@H](N2C(=O)C(C)(C)c3c(F)c(C4CC4)cc(F)c32)C1=O (single isomer, unassigned) [Compound 24A*] |  |
| 1 to 10 | CC1(C)C(=O)N(c2cccn(CCCC(=O)O)c2=O)c2c(O)cc(Cl)cc21 [Compound 7, 4-(3-(5-chloro-7-hydroxy-3,3-dimethyl-2-oxoindolin-1-yl)-2-oxopyridin-1(2H)-yl)butanoic acid] |  |
| 1 to 10 | CC1(C)C(=O)N(c2cccn(CCCC(=O)O)c2=O)c2c(F)cc(Br)cc21 [Compound 1, 4-(3-(5-bromo-7-fluoro-3,3-dimethyl-2-oxoindolin-1-yl)-2-oxopyridin-1(2H)-yl)butanoic acid] |  |
